Test results: the supplement of paper PMC10307832

Legend:
Assay in all cases: relative viability (nuclei count vs DMSO), 5 days (fraction); higher = more cells survive
[1] = compound: COC1=CC=C(C=C1)CN2C=CC3=C2C=C(C=C3)C(=O)NO + N=C(N)NC(=N)NCCc1ccccc1 [Phenformin] (partner 250 µM)
How it was run: (§1)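 Five library-drug doses in √10 steps were combined with a fixed anchor-drug dose, or a single drug was given alone, by pin tool to lung cancer cell lines in 1536-well plates the day after seeding. Nuclei were stained and counted after 5 days. Relative viability is the nuclei count in treated wells over that in vehicle wells, taken as the median of duplicate plates.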

[2] = compound: COC1=CC=C(C=C1)CN2C=CC3=C2C=C(C=C3)C(=O)NO + CC(=O)Nc1cccc(-n2c(=O)n(C3CC3)c(=O)c3c(Nc4ccc(I)cc4F)n(C)c(=O)c(C)c32)c1 [Trametinib] (partner 0.02 µM)
How it was run: as §1

[3] = compound: COC1=CC=C(C=C1)CN2C=CC3=C2C=C(C=C3)C(=O)NO + Cc1nc(NC(=O)N2CCC[C@H]2C(N)=O)sc1-c1ccnc(C(C)(C)C(F)(F)F)c1 [Alpelisib] (partner 2 µM)
How it was run: as §1

Veliparib + Vorinostat = compound: C[C@]1(c2nc3c(C(N)=O)cccc3[nH]2)CCCN1 [Veliparib] + O=C(CCCCCCC(=O)Nc1ccccc1)NO [Vorinostat] (partner 1 µM)
How it was run: as §1

Cell Line	relative viability ([1]; first compound 0.253 µM)	relative viability ([1]; first compound 0.8 µM)	relative viability ([1]; first compound 2.53 µM)	relative viability ([1]; first compound 8 µM)	relative viability ([2]; first compound 0.253 µM)	relative viability ([2]; first compound 0.8 µM)	relative viability ([2]; first compound 2.53 µM)	relative viability ([2]; first compound 8 µM)	relative viability ([3]; first compound 0.253 µM)	relative viability ([3]; first compound 0.8 µM)	relative viability ([3]; first compound 2.53 µM)	relative viability ([3]; first compound 8 µM)	relative viability (Veliparib + Vorinostat; first compound 0.02 µM)	relative viability (Veliparib + Vorinostat; first compound 0.06325 µM)	relative viability (Veliparib + Vorinostat; first compound 0.2 µM)	relative viability (Veliparib + Vorinostat; first compound 0.6325 µM)	relative viability (Veliparib + Vorinostat; first compound 2 µM)	relative viability ([1]; first compound 0.08 µM)	relative viability ([2]; first compound 0.08 µM)	relative viability ([3]; first compound 0.08 µM)
NCI-H358	0.351	0.411	0.314	0.267	0.165	0.153	0.15	0.112	0.941	0.985	0.919	0.829	0.728	0.661	0.877	0.669	0.76	–	–	–
NCI-H441	0.89	0.907	0.863	0.653	0.491	0.61	0.422	0.449	0.8	0.644	0.917	0.554	0.75	0.552	0.63	0.695	0.83	0.914	0.353	0.711
NCI-H460	0.463	0.509	0.473	0.188	0.123	0.153	0.178	0.0809	0.535	0.506	0.359	0.338	0.693	0.608	0.599	0.602	0.635	0.519	0.157	0.36
NCI-H520	0.618	0.645	0.703	0.503	0.723	0.74	0.555	0.723	1.16	0.887	0.904	0.853	0.769	0.62	0.612	0.727	0.773	–	0.426	0.43
NCI-H596	0.99	0.769	0.655	0.666	0.797	0.923	0.776	0.758	0.53	0.384	0.561	0.474	0.659	0.55	0.498	0.624	0.55	0.774	0.64	0.532
NCI-H647	0.525	0.443	0.474	0.404	0.365	0.493	0.669	0.439	1.23	1.16	1.21	0.954	0.584	0.606	0.385	0.366	0.427	0.371	0.481	0.981
NCI-H650	0.45	0.488	0.458	0.399	0.981	1	1.03	1.04	1.16	1.05	1.03	0.892	0.29	0.333	0.397	0.457	0.432	0.468	1.07	1.01
NCI-H661	0.271	0.313	0.272	0.29	0.634	0.611	0.533	0.457	0.464	0.595	0.512	0.626	0.815	0.807	0.713	0.697	0.76	–	–	–
NCI-H727	0.475	0.517	0.534	0.415	0.383	0.377	0.37	0.371	0.515	0.626	0.654	0.562	1.11	0.948	1.1	1.14	1.04	0.603	0.418	0.525
NCI-H838	0.589	0.6	0.628	0.456	0.472	0.561	0.547	0.429	0.981	0.91	1.03	0.874	0.792	0.692	0.71	0.652	0.725	–	0.346	–
NCI-H1355	0.459	0.52	0.482	0.426	0.433	0.403	0.473	0.44	0.892	0.905	0.883	0.901	0.44	0.528	0.638	0.626	0.596	–	0.42	0.793
NCI-H1395	0.463	0.469	0.407	0.413	1.07	1.06	0.96	0.995	1.1	1.11	0.979	0.967	0.432	0.485	0.648	0.638	0.499	0.37	–	0.708
NCI-H1437	0.348	0.36	0.424	0.274	0.494	0.538	0.66	0.57	1.04	0.958	0.953	1.01	0.886	0.746	0.798	0.887	0.813	0.289	0.452	0.827
NCI-H1651	0.302	0.39	0.325	0.275	0.917	0.867	0.787	0.828	1.06	0.964	0.789	0.723	0.557	0.551	0.513	0.464	0.504	0.349	0.798	0.993
NCI-H1666	0.558	0.557	0.579	0.523	0.881	0.849	0.934	0.793	1.04	1.01	1.04	1.36	0.988	0.963	1.14	0.997	1.05	0.559	0.835	1.07
NCI-H1734	0.413	0.386	0.392	0.383	0.739	0.725	0.716	0.732	0.676	0.717	0.622	0.689	–	0.772	0.796	0.785	0.788	–	–	–
NCI-H1755	0.678	0.636	0.637	0.61	0.77	0.791	0.758	0.753	0.964	0.913	0.995	0.928	0.758	0.774	0.725	0.723	0.714	0.595	0.711	0.819
NCI-H1793	0.457	0.438	0.414	0.368	0.471	0.449	0.416	0.336	0.874	0.786	0.546	0.728	0.654	0.697	0.58	0.807	0.722	–	–	0.626
NCI-H1915	0.38	0.378	0.359	0.348	0.297	0.305	0.32	0.31	1.07	1.06	1.08	1.02	0.499	0.465	0.396	0.388	0.426	0.348	0.282	1.02
NCI-H1944	0.234	0.195	0.188	0.165	0.415	0.449	0.421	0.429	0.897	0.731	0.774	0.795	0.491	0.498	0.388	0.44	0.459	–	–	–
NCI-H1975	0.417	0.431	0.407	0.399	0.348	0.359	0.413	0.349	0.711	0.644	0.592	0.547	0.771	0.688	0.698	0.639	0.659	0.442	0.308	0.699
NCI-H1993	0.571	0.445	0.477	0.457	0.564	0.518	0.514	0.543	0.671	0.669	0.745	0.795	–	0.775	0.966	0.804	0.688	0.512	0.526	0.613
NCI-H2009	0.483	0.482	0.501	0.43	0.264	0.261	0.248	0.194	1.17	1.05	1.24	1.09	0.771	0.65	0.709	0.708	0.795	0.489	0.288	1.15
NCI-H2023	0.409	0.383	0.392	0.299	0.594	0.474	0.589	0.48	0.646	0.507	0.586	0.639	–	0.536	0.581	0.472	0.48	0.38	0.478	0.58
NCI-H2085	0.758	0.84	0.722	0.647	0.665	0.692	0.524	0.406	0.981	1.1	0.969	1.02	0.601	0.778	0.753	0.763	0.756	0.739	0.528	0.968
NCI-H2087	0.448	0.442	0.404	0.374	0.204	0.232	0.181	0.154	1.08	1.21	1.13	0.864	0.504	0.747	0.875	0.645	0.726	0.396	0.163	1.08
NCI-H2126	0.52	0.544	0.584	0.517	0.592	0.6	0.622	0.581	0.798	0.744	0.804	0.836	0.811	0.777	0.893	0.785	0.803	0.516	0.569	0.738
